Assay results as given in patent publication US11389447B2 (Janssen Sciences Ireland Unlimited Company, priority 2006, dated 2022).

Test: Kinetic study: plasma kinetics of TMC278 after single IM or SC injection of a nanosuspension;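 further: healthy male beagle dogs injected in both biceps femoris muscles (IM) or both thoracal sides (SC), total volume 0.2 mL/kg, drug measured in plasma from blood samples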
Format: in vivo, male beagle dogs
Settings: for AUC0-312 h / AUC0-696 h / AUC0-2208 h / Cmax / Tmax / plasma concentration of TMC278: single IM 5 mg eq./kg TMC278.HCl nanosuspension
Description: Six healthy male beagle dogs with body weights ranging from 8 to 16 kg at the start of the study, were used. Each dog was identified by an ear tattoo number. Two dogs were dosed intramuscularly (IM) in the left and right m. biceps femoris (treatment group A). […] Two dogs were dosed subcutaneously (SC) in the left and right thoracal region. The injection volume was 2×0.1 ml/kg in all treatment groups. A 20 G needle was used.
Blood samples of 3 ml were taken from the left jugular vein from all dogs on day 0 at 0 h (predose), 20 min, 1 h, 3 h, 8 h and 24 h post-dose and further on days 2, 3, 6, 8, 10, 13, 16, 20, 23, 27, 29, 36, 43, 50, 57, 64, 71, 78, 85 and 92 at approximately 8 AM. Blood samples were placed on EDTA, EDTA Vacuette Greiner, Cat. No. 454086, Greiner Labortechnik N.V.). Within 2 h of blood sampling, samples were centrifuged at room temperature at about 1900×g for 10 minutes to allow plasma separation. Plasma was immediately transferred into a second tube and stored in the freezer within 2 hours after the start of centrifugation.

## Cc1cc(/C=C/C#N)cc(C)c1Nc1ccnc(Nc2ccc(C#N)cc2)n1.Cl [TMC278.HCl]
Injectable formulation of nanonised substance, 5 mg/kg, male beagle dogs
  blood plasma levels after injection (in words): stable blood plasma levels during a prolonged period of time
Dog 19072
  AUC0-312 h: 15000 ng·h/mL
  AUC0-696 h: 20300 ng·h/mL
  AUC0-2208 h: 27400 ng·h/mL
  Cmax: 85.6 ng/mL
  Tmax: 48 h
Dog 19072, 0 h (d0, predose)
  plasma concentration of TMC278: <1.00 ng/mL
Dog 19072, 1 h
  plasma concentration of TMC278: 7.80 ng/mL
Dog 19072, 3 h
  plasma concentration of TMC278: 14.7 ng/mL
Dog 19072, 8 h
  plasma concentration of TMC278: 32.2 ng/mL
Dog 19072, 24 h (d1)
  plasma concentration of TMC278: 50.1 ng/mL
Dog 19072, 48 h (d2)
  plasma concentration of TMC278: 85.6 ng/mL
Dog 19072, 72 h (d3)
  plasma concentration of TMC278: 47.5 ng/mL
Dog 19072, 144 h (d6)
  plasma concentration of TMC278: 48.3 ng/mL
Dog 19072, 192 h (d8)
  plasma concentration of TMC278: 46.8 ng/mL
Dog 19072, 240 h (d10)
  plasma concentration of TMC278: 55.7 ng/mL
Dog 19072, 312 h (d13)
  plasma concentration of TMC278: 27.0 ng/mL
Dog 19072, 384 h (d16)
  plasma concentration of TMC278: 17.0 ng/mL
Dog 19072, 480 h (d20)
  plasma concentration of TMC278: 13.7 ng/mL
Dog 19072, 648 h (d27)
  plasma concentration of TMC278: 7.91 ng/mL
Dog 19072, 696 h (d29)
  plasma concentration of TMC278: 10.2 ng/mL
Dog 19072, 864 h (d36)
  plasma concentration of TMC278: 6.18 ng/mL
Dog 19072, 1032 h (d43)
  plasma concentration of TMC278: 6.32 ng/mL
Dog 19072, 1200 h (d50)
  plasma concentration of TMC278: 4.56 ng/mL
Dog 19072, 1368 h (d57)
  plasma concentration of TMC278: 4.73 ng/mL
Dog 19072, 1536 h (d64)
  plasma concentration of TMC278: 4.47 ng/mL
Dog 19072, 1704 h (d71)
  plasma concentration of TMC278: 3.38 ng/mL
Dog 19072, 1872 h (d78)
  plasma concentration of TMC278: 3.12 ng/mL
Dog 19072, 2040 h (d85)
  plasma concentration of TMC278: 3.20 ng/mL
Dog 19072, 2208 h (d92)
  plasma concentration of TMC278: 2.96 ng/mL
Dog 19080
  AUC0-312 h: 20900 ng·h/mL
  AUC0-696 h: 30500 ng·h/mL
  AUC0-2208 h: 39900 ng·h/mL
  Cmax: 105 ng/mL
  Tmax: 48 h
Dog 19080, 0 h (d0, predose)
  plasma concentration of TMC278: <1.00 ng/mL
Dog 19080, 1 h
  plasma concentration of TMC278: 7.19 ng/mL
Dog 19080, 3 h
  plasma concentration of TMC278: 16.3 ng/mL
Dog 19080, 8 h
  plasma concentration of TMC278: 27.1 ng/mL
Dog 19080, 24 h (d1)
  plasma concentration of TMC278: 69.8 ng/mL
Dog 19080, 48 h (d2)
  plasma concentration of TMC278: 105 ng/mL
Dog 19080, 72 h (d3)
  plasma concentration of TMC278: 69.5 ng/mL
Dog 19080, 144 h (d6)
  plasma concentration of TMC278: 62.3 ng/mL
Dog 19080, 192 h (d8)
  plasma concentration of TMC278: 65.8 ng/mL
Dog 19080, 240 h (d10)
  plasma concentration of TMC278: 82.2 ng/mL
Dog 19080, 312 h (d13)
  plasma concentration of TMC278: 45.8 ng/mL
Dog 19080, 384 h (d16)
  plasma concentration of TMC278: 31.9 ng/mL
Dog 19080, 480 h (d20)
  plasma concentration of TMC278: 25.5 ng/mL
Dog 19080, 648 h (d27)
  plasma concentration of TMC278: 14.4 ng/mL
Dog 19080, 696 h (d29)
  plasma concentration of TMC278: 18.8 ng/mL
Dog 19080, 864 h (d36)
  plasma concentration of TMC278: 11.4 ng/mL
Dog 19080, 1032 h (d43)
  plasma concentration of TMC278: 8.18 ng/mL
Dog 19080, 1200 h (d50)
  plasma concentration of TMC278: 5.68 ng/mL
Dog 19080, 1368 h (d57)
  plasma concentration of TMC278: 5.08 ng/mL
Dog 19080, 1536 h (d64)
  plasma concentration of TMC278: 4.43 ng/mL
Dog 19080, 1704 h (d71)
  plasma concentration of TMC278: 3.90 ng/mL
Dog 19080, 1872 h (d78)
  plasma concentration of TMC278: 3.20 ng/mL
Dog 19080, 2040 h (d85)
  plasma concentration of TMC278: 4.00 ng/mL
Dog 19080, 2208 h (d92)
  plasma concentration of TMC278: 2.81 ng/mL
Mean of 2 dogs
  AUC0-312 h: 18000 ng·h/mL
  AUC0-696 h: 25400 ng·h/mL
  AUC0-2208 h: 33600 ng·h/mL
  Cmax: 95.3 ng/mL
  Tmax: 48 h
Mean of 2 dogs, 0 h (d0, predose)
  plasma concentration of TMC278: <1.00 ng/mL
Mean of 2 dogs, 1 h
  plasma concentration of TMC278: 7.50 ng/mL
Mean of 2 dogs, 3 h
  plasma concentration of TMC278: 15.5 ng/mL
Mean of 2 dogs, 8 h
  plasma concentration of TMC278: 29.7 ng/mL
Mean of 2 dogs, 24 h (d1)
  plasma concentration of TMC278: 60.0 ng/mL
Mean of 2 dogs, 48 h (d2)
  plasma concentration of TMC278: 95.3 ng/mL
Mean of 2 dogs, 72 h (d3)
  plasma concentration of TMC278: 58.5 ng/mL
Mean of 2 dogs, 144 h (d6)
  plasma concentration of TMC278: 55.3 ng/mL
Mean of 2 dogs, 192 h (d8)
  plasma concentration of TMC278: 56.3 ng/mL
Mean of 2 dogs, 240 h (d10)
  plasma concentration of TMC278: 69.0 ng/mL
Mean of 2 dogs, 312 h (d13)
  plasma concentration of TMC278: 36.4 ng/mL
Mean of 2 dogs, 384 h (d16)
  plasma concentration of TMC278: 24.5 ng/mL
Mean of 2 dogs, 480 h (d20)
  plasma concentration of TMC278: 19.6 ng/mL
Mean of 2 dogs, 648 h (d27)
  plasma concentration of TMC278: 11.2 ng/mL
Mean of 2 dogs, 696 h (d29)
  plasma concentration of TMC278: 14.5 ng/mL
Mean of 2 dogs, 864 h (d36)
  plasma concentration of TMC278: 8.79 ng/mL
Mean of 2 dogs, 1032 h (d43)
  plasma concentration of TMC278: 7.25 ng/mL
Mean of 2 dogs, 1200 h (d50)
  plasma concentration of TMC278: 5.12 ng/mL
Mean of 2 dogs, 1368 h (d57)
  plasma concentration of TMC278: 4.91 ng/mL
Mean of 2 dogs, 1536 h (d64)
  plasma concentration of TMC278: 4.45 ng/mL
Mean of 2 dogs, 1704 h (d71)
  plasma concentration of TMC278: 3.64 ng/mL
Mean of 2 dogs, 1872 h (d78)
  plasma concentration of TMC278: 3.16 ng/mL
Mean of 2 dogs, 2040 h (d85)
  plasma concentration of TMC278: 3.60 ng/mL
Mean of 2 dogs, 2208 h (d92)
  plasma concentration of TMC278: 2.89 ng/mL
